The source of these data is PMC4882559, “Novel Azetidine-Containing TZT-1027 Analogues as Antitumor Agents” (Marine Drugs, 2016).

Usually IC50 stands for the concentration that inhibits the measured activity by half. As usually defined, the half-life is the time needed for the level to fall by half in the phase considered. A higher half-life goes with slow loss.

The subject of data set [1] is A549 human lung carcinoma cell lines. Description: Cancer cell proliferation inhibition (MTT assay), A549. The class given is cell-based. On the procedure: (§1) The following cell lines were used for the screening stage, obtained from American Type Culture Collection (ATCC, Manassas, VA, USA); HCT116 human colon cancer cells and A549 human lung carcinoma cell lines were cultured in RPMI 1640 medium supplemented with 10% FBS. Cell cultures were maintained in a humidified atmosphere of 5% CO2 at 37 °C. Cells were seeded at 2000 cells per well in 96-well plates in a volume of 200 μL per well. The test compounds were dissolved in DMSO and diluted with culture medium to different concentrations. After seeding for 24 h, the medium was removed, and […] of the test compound solution was added in duplicates and incubation continued for 72 h at 37 °C in a humidified atmosphere containing 5% CO2. Control cells were treated with vehicle alone. During the last 4 h of incubation, the cells were exposed to tetrazolium dye (MTT) solution (5 mg/mL, […] per well). The generated formazan crystals were dissolved in […] of dimethyl sulfoxide (DMSO), and the absorbance was read spectrophotometrically at 570 nm using an enzyme-linked immunosorbent assay plate reader. The data was calculated using Graph Pad Prism version 5.0 (GraphPad Softwrae, La Jolla, CA, USA). The IC50s were fitted using a non-linear regression model with a sigmoidal dose response.

Data set [2] deals with HCT116 human colon cancer cells. Description: Cancer cell proliferation inhibition (MTT assay), HCT116. The class given is cell-based. To be noted: Homo sapiens, HCT-116, 72 h incubation, mean ± SD of at least three independent experiments. On the procedure:
as §1
For orientation: Tetrazolium dyes change colour on reduction, which living cells bring about.

A short description of data set [3]: Liver microsomes metabolic stability, rat. In general terms: Liver microsomes are vesicles of endoplasmic reticulum, rich in cytochrome P450 enzymes.
The nature of data set [4]: Liver microsomes metabolic stability, human.
A short description of data set [5]: Liver microsomes metabolic stability, mouse.
A further data set concerns Human A549 xenograft. Description: In vivo efficacy study, A549 xenograft model. Also noted: species or system BALB/c athymic mice. Conditions: 2 mg/kg iv once a day; for Tumor volume: n = 6, mean (SD on next line); for Relative tumor volume: RTV = Vt/V0, n = 6, mean ± SD. An excerpt:
Pathogen-free, 4–6 week-old, female BALB/c athymic mice (Shanghai SCXK Laboratory Animal Technology Co. Ltd., Shanghai, China) were housed under sterile conditions. Human A549 xenograft was established in the right flanks of athymic mice according to the protocol of the National Cancer Institute. When the tumor reached a volume of 100 mm^3, the mice were randomly assigned into control (n = 6 per group) and treatment groups (n = 6 per group). Control group were given lactate buffer, and treatment groups were iv administered with tested compounds. The size of tumor was measured individually on the indicated days. Tumor volume (V) was calculated as V = (length × width^2)/2. The individual relative tumor volume (RTV) was calculated as follows: RTV = Vt/V0, where Vt represented the last tumor size measurement and V0 represented the pre-dosing tumor size measurement. The animal experimental protocols were approved by the Animal Ethics Committee of School of Pharmacy, Fudan University and the mice were treated in accordance with international animal ethics guidelines.

The conditions of data set [6]: dose of 4 mg/kg; cited from earlier work. On the procedure:
Further in vivo antitumor activities of 1a was evaluated in A549 xenograft models in mice via tail vein intravenous injection for 22 days. […] Considering of that, the maximum dose of 1a was chosen as 5 mg/kg. […] However, compound 1a could not achieve effective inhibition at all the dose levels (Figure 3b). TZT-1027 (2 mg/kg/day) inhibited tumor growth by 61% over the 22-day administration schedule, howe ... || In summary, we described the design and synthesis of nine TZT-1027 analogues based on the conformation restriction strategy. 3-Aryl-zetidines were used to replace the phenylethyl group at C-terminus. Two human cancer cell lines (A549, HCT116) were used to evaluate the potency of the synthesized compounds. […] Compound 1a could not achieve effective inhibition in A549 xenograft models at different dose levels.

For `CC(=O)O[C@@]12CO[C@@H]1C[C@H](O)[C@@]1(C)C(=O)[C@H](O)C3=C(C)[C@@H](OC(=O)[C@H](O)[C@@H](NC(=O)OC(C)(C)C)c4ccccc4)C[C@@](O)([C@@H](OC(=O)c4ccccc4)[C@H]21)C3(C)C` [Docetaxel, reference compound], the IC50 in data set [1] (Homo sapiens, A549, MTT assay, 72 h incubation, mean ± SD of at least three independent experiments) amounted to 23.5 ± 9.5 nM; in data set [2], 0.3 ± 0.1 nM.

Regarding `CC[C@H](C)[C@@H]([C@@H](CC(=O)N1CCC[C@H]1[C@H](OC)[C@@H](C)C(=O)N1CC(c2ccccc2C(C)C)C1)OC)N(C)C(=O)[C@@H](NC(=O)[C@@H](C(C)C)N(C)C)C(C)C` [1d, (S)-2-((R)-2-(Dimethylamino)-3-methylbutanamido)-N-((3R,4S,5S)-1-((S)-2-((1R,2R)-3-(3-(2-isopropylphenyl)azetidin-1-yl)-1-methoxy-2-methyl-3-oxopropyl)pyrrolidin-1-yl)-3-methoxy-5-methyl-1-oxoheptan-4-yl)-N,3-dimethylbutanamide], the “loss of potency against A549 cell lines” value in data set [1] (substituted phenyl analogues compared with 1a) is listed as “about 60 fold”.

Take `O=C(c1ccc(F)cc1)C1CCN(CCn2c(=O)[nH]c3ccccc3c2=O)CC1` [Ketanserin, ketanserin, reference compound]: the Clint in data set [3] (Rat, apparent intrinsic clearance, 1 μM) is listed as 159.00 mL/min/kg; in data set [4] (Human, apparent intrinsic clearance, 1 μM), 39.63 mL/min/kg; in data set [5] (Mouse, apparent intrinsic clearance, 1 μM), 402.92 mL/min/kg. The half-life at 1 μM in data set [3] (rat, liver microsomes) is 15.6 min; in data set [4] (human, liver microsomes), 43.9 min; in data set [5] (mouse, liver microsomes) it was 13.5 min.

For `CC[C@H](C)[C@@H]([C@@H](CC(=O)N1CCC[C@H]1[C@H](OC)[C@@H](C)C(=O)NCCc1ccccc1)OC)N(C)C(=O)[C@@H](NC(=O)[C@H](C(C)C)N(C)C)C(C)C` [TZT-1027], the Tumor volume in the data set on Human A549 xenograft (day 1) is on record as 147.31 mm3; in the data set with Human A549 xenograft (day 4) it was 182.59 mm3; with Human A549 xenograft (day 7), 196.64 mm3; with Human A549 xenograft (day 10) it was 232.81 mm3; in the data set with Human A549 xenograft (day 13) it was 275.81 mm3; with Human A549 xenograft (day 16), 301.7 mm3. Also, the Tumor volume in the data set with Human A549 xenograft (day 19) stood at 346.59 mm3; in the data set with Human A549 xenograft (day 22), 363.71 mm3. For the same molecule, the Relative tumor volume in the data set with Human A549 xenograft (day 7) is reported as 1.48 ± 0.64; in the data set on Human A549 xenograft (day 10) it was 1.73 ± 0.78; with Human A549 xenograft (day 13), 2.09 ± 0.9; with Human A549 xenograft (day 16) it was 2.3 ± 0.9; in the data set on Human A549 xenograft (day 19), 2.6 ± 1.33; with Human A549 xenograft (day 22), 2.66 ± 1.11. In addition, the “toxicity of a dose” value in data set [6] is reported as “seemed to be toxic”.
